Assay results taken from patent US20130203662A1, “Mini-Hepcidin Peptides and Methods of Using Thereof” (priority 2008, published 2013).
Square brackets hold non-standard residues; d marks the D form. Peptide text beside a SMILES is read from it.

Experiments:
[1] = molecular target: T1, ferroportin fused to green fluorescent protein (ECR293/Fpn-GFP cells) (Mus musculus, UniProt Q9JHI9); assay: Flow cytometry of ferroportin-GFP internalization and degradation in ECR293/Fpn-GFP cells; type: cell-based; settings: concentration eliciting 50% of maximal loss of fluorescence generated by reference Hep25; 24 hours; read-out: EC50 (the source's name)
T1 sequence (Q9JHI9 1-570): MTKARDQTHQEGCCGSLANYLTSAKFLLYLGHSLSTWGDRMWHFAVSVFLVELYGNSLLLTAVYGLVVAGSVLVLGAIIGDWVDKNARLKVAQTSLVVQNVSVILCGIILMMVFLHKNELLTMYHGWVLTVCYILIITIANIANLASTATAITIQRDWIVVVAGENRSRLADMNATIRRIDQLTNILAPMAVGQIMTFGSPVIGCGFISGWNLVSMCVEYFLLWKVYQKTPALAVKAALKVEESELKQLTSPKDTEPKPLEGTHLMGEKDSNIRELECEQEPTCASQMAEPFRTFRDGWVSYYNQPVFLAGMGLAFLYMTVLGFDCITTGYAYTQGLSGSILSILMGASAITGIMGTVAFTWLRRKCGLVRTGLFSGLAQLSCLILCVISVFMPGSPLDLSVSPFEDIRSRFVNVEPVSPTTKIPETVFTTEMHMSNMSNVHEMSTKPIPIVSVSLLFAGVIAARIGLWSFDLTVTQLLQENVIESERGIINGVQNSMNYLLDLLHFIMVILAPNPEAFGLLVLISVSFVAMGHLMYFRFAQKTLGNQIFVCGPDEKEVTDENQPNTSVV
Procedure: In vitro activity may be measured by the dose-dependent loss of fluorescence of cells engineered to display ferroportin fused to green fluorescent protein as in Nemeth et al. (2006) Blood 107:328-33. […]
FLOW CYTOMETRY. The activity of peptides of the present invention was measured by flow cytometry as previously described. See Nemeth et al. (2006) Blood 107:328-333, which is herein incorporated by reference. ECR293/Fpn-GFP, a cell line stably transfected with a ponasterone-inducible ferroportin construct tagged at the C-terminus with green fluorescent protein was used. See Nemeth et al. (2004) Science 306:2090-2093, which is herein incorporated by reference. Briefly, the cells were plated on poly-D-lysine coated plates in the presence of 20 μM FAC, with or without 10 μM ponasterone. After 24 hours, ponasterone was washed off, and cells were treated with peptides for 24 hours. Cells were then trypsinized and resuspended at 1×10^6 cells/ml, and the intensity of green fluorescence was analyzed by flow cytometry. […] Cells not induced with ponasterone to express Fpn-GFP were used to establish a gate to exclude background fluorescence. Cells induced with ponasterone, but not treated with any peptides, were used as the positive control. Each peptide was tested over the range of concentrations (0, 0.01, 0.03, 0.1, 0.3, 1, 3 and 10 μM). Each peptide treatment was repeated independently 3 to 6 times.

C57/B16J mice = assay: Serum iron assay in mice after peptide administration; type: in vivo; settings: i.p., 4 hours
Procedure: Serum iron assay. The decrease in serum iron after peptide administration is the principal measure of hepcidin activity. Thus, as provided herein, the hepcidin activity of selected peptides of the present invention were assayed in vivo by measuring serum iron in test subjects. […] Two weeks before the experiment, the mice were switched to a diet containing about 2-4 ppm iron (Harlan Teklad, Indianapolis, Ind.) in order to suppress endogenous hepcidin. Peptide stocks were diluted to desired concentrations in sterile phosphate buffered saline (PBS) or other diluents as described next. […] Mice were sacrificed 4 hours later, blood was collected by cardiac puncture, and serum was separated using MICROTAINER tubes (Becton Dickinson, Franklin Lakes, N.J.). Serum iron was determined by using a colorimetric assay (Diagnostic Chemicals, Oxford, Conn.), which was modified for the microplate format so that 10 μl serum was used per measurement. The results were expressed as the percentage of decrease in serum iron when compared with the average value of serum iron levels in PBS-treated mice.

| SMILES | DC50 [1] [nM] | serum iron (C57/B16J mice; 20 nmoles in PBS) | serum iron (C57/B16J mice; 200 nmoles in PBS) | serum iron (C57/B16J mice; 50 μg per mouse in PBS, vs PBS) |
| --- | --- | --- | --- | --- |
| CC[C@@H](C)[C@@H](NC(=O)[C@H](N)Cc1ccccc1)C(=O)N[C@H](CS)C(=O)N[C@@H](C(=O)N1CCC[C@@H]1C(=O)N[C@H](Cc1ccccc1)C(=O)N[C@H](Cc1c[nH]cn1)C(N)=O)[C@H](C)CC [riHep7ΔDT] (H-[dF][dI][dC][dI][dP][dF][dH]-NH2; N-terminus assumed) | 150 | slightly but not significantly reduced serum iron concentrations | serum iron concentrations significantly lower than those achieved after injection of PBS | – |
| CC[C@@H](C)[C@@H](NC(=O)[C@H](N)Cc1ccccc1)C(=O)N[C@H](CS)C(=O)N[C@@H](C(=O)N1CCC[C@@H]1C(=O)N[C@H](Cc1ccccc1)C(=O)N[C@H](Cc1c[nH]cn1)C(=O)N[C@@H](C(=O)N[C@H](CC(=O)O)C(N)=O)[C@H](C)O)[C@H](C)CC [Pr12] | 900 | – | – | significant decrease in serum iron after 4 hours |
